Reference: US20080109040A1, “METHOD OF TREATING ARRHYTHMIAS” (priority 2002, published 2008)
Where two headings read alike, the source gives them in different places.

Legend:
[1] = tested on: transient outward current (Ito); assay: Transient outward current voltage clamp in isolated canine left ventricular myocytes; type: cell-based; details: for Effect on Ito: any of the test voltages
Purkinje fibers = tested on: Purkinje fibers; parameters: species or system canine; details: for Amplitude (phase 0) / Overshoot / RMP: BCL = 500 msec
Experimental: Dogs weighing 20-25 kg were anticoagulated with heparin and anesthetized with pentobarbital (30-35 mg/kg, i.v.). The chest was opened via a left thoracotomy, the heart excised and placed in a cold cardioplegic solution ([K^+]o=8 mmol/L, 4° C.). Free running Purkinje fibers were isolated from the left and right ventricles. The preparations were placed in a tissue bath (5 ml volume with flow rate of 12 ml/min) and allowed to equilibrate for at least 30 min while superfused with an oxygenated Tyrode's solution (pH=7.35, t^0=37±0.5° C.) and paced at a basic cycle length (BCL) of 1 Hz using point stimulation. The composition of the Tyrode's solution was as following (in mM): NaCl 129, KCl 4, NaH2PO4 0.9, NaHCO3 20, CaCl2 1.8, MgSO4 0.5, and D-glucose 5.5.
(§1) Action potential recordings: Transmembrane potentials were recorded using standard glass microelectrodes filled with 2.7 M KCl (10 to 20 MΩ DC resistance) connected to a high input-impedance amplification system (World Precision Instruments, Sarasota, Fla., USA).
Control recordings were obtained after a 30 min equilibration period. Increasing concentrations of ranolazine (1, 5, 10, 50, and 100 μM) were evaluated, with recordings started 20 minutes after the addition of each concentration of the drug. The rate-dependence of ranolazine's actions were evaluated by recording action potentials at basic cycle lengths (BCL) of 300, 500, 800, 1000, 2000, and 5000 msec. In this report only BCLs of 500 and 2000 msec are presented as representative of relatively rapid and slow pacing rates.
Because low extracellular K^+ is known to promote drug-induced APD prolongation and early afterdepolarizations, we determined the effects of ranolazine in the presence of normal (4 mM) and low (3 mM) [K^+]o.
In the final phase, we evaluate the effects of ranolazine on EADs induced by d-sotalol (100 μM), a fairly specific IKr blocker.

[2] = target: T1, L-type calcium current (ICa) (Canis lupus familiaris, UniProt A0A8I3QY31); assay: L-type calcium current voltage clamp in isolated canine left ventricular myocytes; type: cell-based; details: read-out: Concentration at which ranolazine blocks the calcium channel
T1 construct: Single myocytes were obtained by enzymatic dissociation from a wedge-shaped section of the ventricular free wall; endogenous in cells; host or cells: isolated canine left ventricular myocytes

late INa = late INa (Canis lupus familiaris, UniProt Q865W3); assay: Late INa, perforated patch voltage clamp in isolated canine left ventricular myocytes; type: cell-based; details: 500 ms pulses to −30 mV at 1 Hz, read-out: Half-inhibition of late INa
epicardial preparations = assay: Action potential studies in isolated canine ventricular epicardial tissues; parameters: Amplitude / Overshoot: unit not given beside the values; details: for Amplitude / Overshoot / RMP: epicardial, BCL = 500 msec
Experimental: as §1, with “The composition of the Tyrode's solution was (in mM): […] Action” for “Action”, “USA). […] Data recorded at BCLs of 500 and 2000 msec are presented.” for “USA).”

[3] = ranolazine 1.0 μM, [K+]0 = 3.0 mM
[4] = ranolazine 1.0 μM, [K+]0 = 4.0 mM
[5] = ranolazine 5.0 μM, [K+]0 = 3.0 mM
[6] = ranolazine 5.0 μM, [K+]0 = 4.0 mM
[7] = ranolazine 10.0 μM, [K+]0 = 3.0 mM
[8] = ranolazine 10.0 μM, [K+]0 = 4.0 mM
[9] = ranolazine 50.0 μM, [K+]0 = 3.0 mM
[10] = ranolazine 50.0 μM, [K+]0 = 4.0 mM
[11] = ranolazine 100.0 μM, [K+]0 = 3.0 mM
[12] = ranolazine 100.0 μM, [K+]0 = 4.0 mM
[13] = epicardium, low [K+]o, BCL = 2000 msec

late INa, sequence (Q865W3 1-2013): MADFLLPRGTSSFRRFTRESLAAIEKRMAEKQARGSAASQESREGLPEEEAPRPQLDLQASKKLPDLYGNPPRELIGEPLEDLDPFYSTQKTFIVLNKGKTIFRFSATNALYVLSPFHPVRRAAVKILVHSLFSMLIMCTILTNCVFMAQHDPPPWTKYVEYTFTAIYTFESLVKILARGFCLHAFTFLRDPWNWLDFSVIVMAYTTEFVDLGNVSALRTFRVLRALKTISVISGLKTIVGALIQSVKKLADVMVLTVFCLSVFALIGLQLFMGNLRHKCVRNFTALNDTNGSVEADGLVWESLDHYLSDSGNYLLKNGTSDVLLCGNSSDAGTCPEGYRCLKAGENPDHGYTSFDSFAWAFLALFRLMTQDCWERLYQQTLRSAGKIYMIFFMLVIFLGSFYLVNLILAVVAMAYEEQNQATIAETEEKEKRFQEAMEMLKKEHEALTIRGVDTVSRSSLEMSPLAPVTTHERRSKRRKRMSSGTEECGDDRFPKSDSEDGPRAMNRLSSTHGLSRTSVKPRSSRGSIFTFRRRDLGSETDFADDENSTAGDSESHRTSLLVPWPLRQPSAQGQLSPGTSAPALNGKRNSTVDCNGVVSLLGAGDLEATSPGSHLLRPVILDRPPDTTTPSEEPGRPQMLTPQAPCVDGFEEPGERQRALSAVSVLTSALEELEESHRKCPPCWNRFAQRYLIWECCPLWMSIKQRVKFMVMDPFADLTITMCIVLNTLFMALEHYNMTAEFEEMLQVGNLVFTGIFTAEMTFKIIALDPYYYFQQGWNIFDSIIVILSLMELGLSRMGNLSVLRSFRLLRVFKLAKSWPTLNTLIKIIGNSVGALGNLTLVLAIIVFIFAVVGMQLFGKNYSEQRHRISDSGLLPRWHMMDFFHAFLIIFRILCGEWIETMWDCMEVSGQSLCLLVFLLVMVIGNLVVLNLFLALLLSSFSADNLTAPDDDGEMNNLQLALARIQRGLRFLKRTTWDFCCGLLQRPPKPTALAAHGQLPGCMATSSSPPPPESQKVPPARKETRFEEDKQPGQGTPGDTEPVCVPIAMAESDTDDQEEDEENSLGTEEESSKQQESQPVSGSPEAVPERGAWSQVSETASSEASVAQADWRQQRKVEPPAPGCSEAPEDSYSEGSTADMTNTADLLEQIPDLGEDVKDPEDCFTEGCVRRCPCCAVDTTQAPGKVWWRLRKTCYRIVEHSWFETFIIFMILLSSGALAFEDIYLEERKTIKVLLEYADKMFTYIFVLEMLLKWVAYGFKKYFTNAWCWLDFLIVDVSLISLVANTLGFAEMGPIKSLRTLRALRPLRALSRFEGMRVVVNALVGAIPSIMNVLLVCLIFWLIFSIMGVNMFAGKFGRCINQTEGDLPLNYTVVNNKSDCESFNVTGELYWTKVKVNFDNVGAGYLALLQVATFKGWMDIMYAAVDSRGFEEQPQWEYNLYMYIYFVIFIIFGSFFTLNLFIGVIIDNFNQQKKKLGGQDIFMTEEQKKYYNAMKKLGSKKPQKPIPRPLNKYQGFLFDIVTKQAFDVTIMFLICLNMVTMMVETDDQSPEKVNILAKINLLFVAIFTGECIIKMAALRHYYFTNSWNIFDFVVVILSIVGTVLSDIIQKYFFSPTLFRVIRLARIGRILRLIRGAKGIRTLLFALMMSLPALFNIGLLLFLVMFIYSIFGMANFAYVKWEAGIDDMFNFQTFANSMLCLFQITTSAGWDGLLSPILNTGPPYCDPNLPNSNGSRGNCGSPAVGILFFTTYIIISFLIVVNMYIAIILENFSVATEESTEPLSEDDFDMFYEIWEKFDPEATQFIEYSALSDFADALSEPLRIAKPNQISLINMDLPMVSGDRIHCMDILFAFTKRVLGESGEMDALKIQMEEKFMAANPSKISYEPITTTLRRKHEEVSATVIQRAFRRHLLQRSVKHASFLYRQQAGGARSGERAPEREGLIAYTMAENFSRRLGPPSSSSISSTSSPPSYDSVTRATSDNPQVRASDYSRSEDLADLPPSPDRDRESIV
T1 sequence (A0A8I3QY31 1-2188): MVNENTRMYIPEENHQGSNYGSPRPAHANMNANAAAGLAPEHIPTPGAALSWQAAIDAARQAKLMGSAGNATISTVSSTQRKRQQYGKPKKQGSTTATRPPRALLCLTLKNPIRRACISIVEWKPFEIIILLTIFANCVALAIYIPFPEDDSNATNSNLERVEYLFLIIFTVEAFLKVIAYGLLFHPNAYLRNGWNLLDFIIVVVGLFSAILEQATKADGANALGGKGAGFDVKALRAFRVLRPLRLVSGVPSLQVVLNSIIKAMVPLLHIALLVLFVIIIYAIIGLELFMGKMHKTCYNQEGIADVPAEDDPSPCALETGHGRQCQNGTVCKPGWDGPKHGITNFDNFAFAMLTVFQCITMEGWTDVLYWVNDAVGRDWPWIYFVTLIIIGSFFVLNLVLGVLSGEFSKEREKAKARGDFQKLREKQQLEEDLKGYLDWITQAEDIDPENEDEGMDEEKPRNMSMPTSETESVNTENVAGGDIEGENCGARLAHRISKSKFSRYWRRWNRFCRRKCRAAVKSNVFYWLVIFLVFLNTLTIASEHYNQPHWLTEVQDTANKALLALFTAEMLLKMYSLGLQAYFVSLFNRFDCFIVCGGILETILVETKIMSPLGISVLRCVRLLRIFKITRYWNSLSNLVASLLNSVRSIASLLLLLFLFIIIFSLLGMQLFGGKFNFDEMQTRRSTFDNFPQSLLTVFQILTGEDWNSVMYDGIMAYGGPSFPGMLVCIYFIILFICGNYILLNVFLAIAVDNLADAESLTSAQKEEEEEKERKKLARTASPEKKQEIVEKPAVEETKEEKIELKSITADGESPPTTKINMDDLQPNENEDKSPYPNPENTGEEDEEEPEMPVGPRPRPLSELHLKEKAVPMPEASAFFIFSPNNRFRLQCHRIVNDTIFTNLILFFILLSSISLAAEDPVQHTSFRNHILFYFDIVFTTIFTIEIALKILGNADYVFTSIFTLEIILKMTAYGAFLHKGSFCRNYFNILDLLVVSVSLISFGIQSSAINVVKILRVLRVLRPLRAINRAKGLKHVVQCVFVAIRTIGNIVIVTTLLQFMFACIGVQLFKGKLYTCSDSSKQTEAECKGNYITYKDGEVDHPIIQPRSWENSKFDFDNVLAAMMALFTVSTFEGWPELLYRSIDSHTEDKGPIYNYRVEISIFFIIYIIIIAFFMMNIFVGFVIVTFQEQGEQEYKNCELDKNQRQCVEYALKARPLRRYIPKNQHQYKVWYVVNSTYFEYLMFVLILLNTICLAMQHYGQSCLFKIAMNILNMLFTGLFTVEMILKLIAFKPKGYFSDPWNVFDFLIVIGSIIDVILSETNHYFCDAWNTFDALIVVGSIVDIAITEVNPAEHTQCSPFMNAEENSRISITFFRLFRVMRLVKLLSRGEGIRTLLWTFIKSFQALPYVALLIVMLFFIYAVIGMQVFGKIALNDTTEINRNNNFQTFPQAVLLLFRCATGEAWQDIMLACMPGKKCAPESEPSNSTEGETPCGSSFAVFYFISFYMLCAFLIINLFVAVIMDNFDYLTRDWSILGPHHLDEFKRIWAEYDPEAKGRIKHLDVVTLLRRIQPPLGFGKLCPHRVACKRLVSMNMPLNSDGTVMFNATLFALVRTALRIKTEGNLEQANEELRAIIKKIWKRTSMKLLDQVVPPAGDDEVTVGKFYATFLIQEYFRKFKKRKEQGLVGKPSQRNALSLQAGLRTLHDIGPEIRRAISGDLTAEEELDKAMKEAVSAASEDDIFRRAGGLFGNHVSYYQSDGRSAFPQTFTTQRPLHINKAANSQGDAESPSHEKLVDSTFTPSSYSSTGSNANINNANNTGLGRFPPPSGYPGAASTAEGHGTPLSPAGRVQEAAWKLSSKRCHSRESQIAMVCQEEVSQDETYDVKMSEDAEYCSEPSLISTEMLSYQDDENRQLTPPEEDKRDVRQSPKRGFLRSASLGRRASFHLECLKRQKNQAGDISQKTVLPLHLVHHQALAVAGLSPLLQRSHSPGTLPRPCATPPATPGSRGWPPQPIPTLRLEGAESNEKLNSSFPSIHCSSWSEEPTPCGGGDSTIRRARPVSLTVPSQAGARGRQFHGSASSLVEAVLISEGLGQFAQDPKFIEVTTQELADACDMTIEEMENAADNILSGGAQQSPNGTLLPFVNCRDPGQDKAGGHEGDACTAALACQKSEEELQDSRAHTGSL

Structure (SMILES): COc1ccccc1OCC(O)CN1CCN(CC(=O)Nc2c(C)cccc2C)CC1 (racemic) [ranolazine, N-(2,6-dimethylphenyl)-4-[2-hydroxy-3-(2-methoxyphenoxy)propyl]-1-piperazineacetamide]
- Effect on Ito ([1]; ranolazine 10 μM): no effect
- Effect on Ito ([1]; ranolazine 20 μM): no effect
- Reduction of peak Ito ([1]; ranolazine 50 μM, 4 min): less than 10
- Reduction of Ito ([1]; ranolazine 50 μM, test potential 10 mV): 10±2%
- Reduction of Ito ([1]; ranolazine 100 μM, test potential 0 mV): 16±3%
- Reduction of Ito ([1]; ranolazine 100 μM, test potential 10 mV): 17±4%
- Lowest concentration suppressing EADs induced by d-sotalol (Purkinje fibers): 5 micromolar/L
- Amplitude (phase 0) (Purkinje fibers; [3]): 132 ± 6
- Overshoot (Purkinje fibers; [3]): 40 ± 5
- RMP (Purkinje fibers; [3]): −92 ± 1
- Amplitude (phase 0) (Purkinje fibers; [4]): 120 ± 9
- Overshoot (Purkinje fibers; [4]): 32 ± 7
- RMP (Purkinje fibers; [4]): −90 ± 2
- Amplitude (phase 0) (Purkinje fibers; [5]): 130 ± 5
- Overshoot (Purkinje fibers; [5]): 38 ± 4
- RMP (Purkinje fibers; [5]): −92 ± 1
- Amplitude (phase 0) (Purkinje fibers; [6]): 124 ± 3
- Overshoot (Purkinje fibers; [6]): 34 ± 7
- RMP (Purkinje fibers; [6]): −90 ± 2
- Purkinje fibers in which d-sotalol-induced EADs were abolished (Purkinje fibers; ranolazine 5 μM, d-sotalol 100 μM): 4 out of 4
- Amplitude (phase 0) (Purkinje fibers; [7]): 128 ± 4
- Overshoot (Purkinje fibers; [7]): 37 ± 4
- RMP (Purkinje fibers; [7]): −92 ± 1
- Amplitude (phase 0) (Purkinje fibers; [8]): 122 ± 7
- Overshoot (Purkinje fibers; [8]): 32 ± 6
- RMP (Purkinje fibers; [8]): −90 ± 3
- Amplitude (phase 0) (Purkinje fibers; [9]): 121 ± 7
- Overshoot (Purkinje fibers; [9]): 29 ± 6
- RMP (Purkinje fibers; [9]): −92 ± 1
- Amplitude (phase 0) (Purkinje fibers; [10]): 117 ± 7
- Overshoot (Purkinje fibers; [10]): 28 ± 7
- RMP (Purkinje fibers; [10]): −89 ± 3
- Amplitude (phase 0) (Purkinje fibers; [11]): 114 ± 7
- Overshoot (Purkinje fibers; [11]): 24 ± 7
- RMP (Purkinje fibers; [11]): −90 ± 2
- Amplitude (phase 0) (Purkinje fibers; [12]): 106 ± 12
- Overshoot (Purkinje fibers; [12]): 19 ± 11
- RMP (Purkinje fibers; [12]): −87 ± 3
- Effect on APD (Purkinje fibers; ranolazine 1-10 μM, [K+]o 4 mM): either no effect or a relatively small abbreviation
- Effect on Vmax (Purkinje fibers; ranolazine 50 and 100 μM): significant reduction
- Effect on APD90 (Purkinje fibers; ranolazine 50 and 100 μM, [K+]o 4 mM): markedly abbreviated at slow, but not at rapid pacing rates
- Effect on APD50 (Purkinje fibers; ranolazine 50 and 100 μM, rapid and slow rates, [K+]o 4 mM): significantly abbreviated
- IC50 [2]: 296 µM
- IC50 (late INa): 21 µM
- Effect on APD (epicardial preparations; epicardial tissues, BCL 500 msec): concentration-dependent prolongation
- Amplitude (epicardial preparations; ranolazine 1.0 μM): 93 ± 5
- Overshoot (epicardial preparations; ranolazine 1.0 μM): 10 ± 4
- RMP (epicardial preparations; ranolazine 1.0 μM): −84 ± 4
- Amplitude (epicardial preparations; ranolazine 5.0 μM): 101 ± 2
- Overshoot (epicardial preparations; ranolazine 5.0 μM): 12 ± 3
- RMP (epicardial preparations; ranolazine 5.0 μM): −89 ± 1
- Amplitude (epicardial preparations; ranolazine 10.0 μM): 94 ± 5
- Overshoot (epicardial preparations; ranolazine 10.0 μM): 8 ± 4
- RMP (epicardial preparations; ranolazine 10.0 μM): −88 ± 2
- Amplitude (epicardial preparations; ranolazine 50.0 μM): 86 ± 12
- Overshoot (epicardial preparations; ranolazine 50.0 μM): 0 ± 11
- RMP (epicardial preparations; ranolazine 50.0 μM): −86 ± 1
- Amplitude (epicardial preparations; ranolazine 100.0 μM (n=2)): 93 ± 3
- Overshoot (epicardial preparations; ranolazine 100.0 μM (n=2)): 8 ± 4
- RMP (epicardial preparations; ranolazine 100.0 μM (n=2)): −85 ± 3
- Effect on APD90 (epicardial preparations; epicardium, low [K+]o, BCL 500 msec): prominent concentration-dependent prolongation
- Effect on APD50 (epicardial preparations; [13]): little change
- Effect on APD90 (epicardial preparations; [13]): concentration-dependent prolongation
- Effect on APD in two of four epicardial preparations (epicardial preparations; ranolazine 100.00 μM, BCL 500 msec): excessive APD prolongation
